Measurements from patent US20100189648A1, “INHIBITORS FOR DISRUPTING THE INTERACTION OF UBIQUITINATION RELATED ENZYMES AND USES THEREOF” (priority 2006, published 2010).

Key:
Format in all cases: cell-based, human
Hela cells = assay: MTT survival assay, cervical cancer line (Hela cells); set-up: IC50 (95% confidence level), interval: unit not given beside the values
Protocol: (§1) The effect of the above identified compounds on anti-tumor activity in human carcinoma cells was determined by the MTT survival assay. The MTT assay is a commonly used method in evaluation of cell survival, based on the ability of viable cells to convert MTT (MTT, Sigma, Cat No. 044K5307), a soluble tetrazolium salt [3-(4,5-dimethylthuazole-2-yl)-2,5 diphenyl tetrazolium bromide], into an insoluble formazan precipitate, which is quantitated by spectrophotometry following solubilization in dimethyl sulfoxide (DMSO).
(§2) In brief, different carcinoma cells were treated with negative control, various test articles at different concentration, and positive control (DDP), in 96-well tissue culture dishes. Each test article at different concentration is repeated 3 times.
(§3) Different carcinoma cells were diluted with 10% FBS and RPM1640 or MEM media to a concentration of 3-5×10^4 per ml suspension. 100 microliter of cells were incubated in each well in 96-well tissue culture dishes at 37 C. The cells were incubated at 37 C on the first day. On the second day, media supernatant was removed and replaced with media and different concentration of test articles (100 microliter in each well). Three Negative control wells and three positive control (DDP) wells were also included. The 96-well plate were incubated at 37 C for another 68 hours. After 68 hours, supernatant of each well was removed. 100 microliter of 1 mg/ml MTT diluted in PBS was injected into each well. The cells were incubated at 37 C for another 4 hours. The cells were then solubilized in 150 microliter DMSO, mixed for 10 minutes and absorbance readings were taken using Microplate reader Bio-Rad Model 550 at 570 nm. IR (cell growth inhibition rate) % was calculated as (OD570 of negative control-OD570 with test article)/OD570 of negative control. IC50 (cell 50% inhibition concentration) at 95% confidence level was calculated with Bliss method.

MCF-7 = assay: MTT survival assay, breast cancer cell line (MCF-7); set-up: IC50 (95% confidence level), interval: unit not given beside the values
Protocol: as §1, §2, §3

HCT116 = assay: MTT survival assay, colon cancer cell line (HCT116); set-up: IC50 (95% confidence level), interval: unit not given beside the values
Protocol: as §1, §2, §3

A459 = assay: MTT survival assay, lung cancer cell line (A459); set-up: IC50 (95% confidence level), interval: unit not given beside the values; settings: for IC50 (95% confidence level), interval: 95% confidence limits of IC50; for IC50 (95% confidence level): Bliss method, unit not printed (concentrations in μg/ml)
Protocol: as §1, §2, §3

SMMC-7721 = assay: MTT survival assay, liver cancer cell line (SMMC-7721)
Protocol: as §1, §2, §3

SKOV3 = assay: MTT survival assay, ovarian cancer cell line (SKOV3); settings: for IC50 (95% confidence level): Bliss method, unit not printed (concentrations in μg/ml)
Protocol: as §1, §2, §3

U251 = assay: MTT survival assay, glioma cell line (brain tumor U251); settings: for IC50 (95% confidence level): Bliss method, unit not printed (concentrations in μg/ml)
Protocol: as §1, §2, §3

[1] = Bliss method, unit not printed (concentrations in μg/ml)
[2] = A459 Experiment #2, 0.0625 μg/ml
[3] = SMMC-7721 Experiment #2, 0.25 μg/ml
[4] = SMMC-7721 Experiment #2, 1 μg/ml
[5] = SMMC-7721 Experiment #2, 4 μg/ml
[6] = SKOV3 (first table), 0.0625 μg/ml
[7] = SKOV3 (first table), 0.25 μg/ml
[8] = SKOV3 (second table), 0.0625 μg/ml
[9] = SKOV3 (second table), 0.25 μg/ml
[10] = U251 (first table), 0.0625 μg/ml
[11] = U251 (second table), 0.0625 μg/ml
[12] = U251 (second table), 0.25 μg/ml

N.N.[Cl][Pt][Cl] [DDP, cisplatin, reference compound]
IR (%) (Hela cells; 0.0625 μg/ml): 35.3%
OD(A570 nm) (Hela cells; 0.0625 μg/ml): 0.481 ± 0.081
IR (%) (Hela cells; 0.25 μg/ml): 72.2%
OD(A570 nm) (Hela cells; 0.25 μg/ml): 0.206 ± 0.014
IR (%) (Hela cells; 1 μg/ml): 83.4%
OD(A570 nm) (Hela cells; 1 μg/ml): 0.123 ± 0.007
IR (%) (Hela cells; 4 μg/ml): 89.5%
OD(A570 nm) (Hela cells; 4 μg/ml): 0.078 ± 0.001
IC50 (95% confidence level), interval (Hela cells; 95% confidence limits of IC50): 0.062-0.156
IC50 (95% confidence level) (Hela cells; [1]): 0.105
IR (%) (MCF-7; 0.0625 μg/ml): 12.8%
OD(A570 nm) (MCF-7; 0.0625 μg/ml): 0.787 ± 0.005
IR (%) (MCF-7; 0.25 μg/ml): 2.6%
OD(A570 nm) (MCF-7; 0.25 μg/ml): 0.879 ± 0.059
IR (%) (MCF-7; 1 μg/ml): 83.3%
OD(A570 nm) (MCF-7; 1 μg/ml): 0.151 ± 0.011
IR (%) (MCF-7; 4 μg/ml): 88.2%
OD(A570 nm) (MCF-7; 4 μg/ml): 0.107 ± 0.007
IC50 (95% confidence level), interval (MCF-7; 95% confidence limits of IC50): 0.483-0.737
IC50 (95% confidence level) (MCF-7; [1]): 0.596
IR (%) (HCT116; 0.25 μg/ml): 51.0%
OD(A570 nm) (HCT116; 0.25 μg/ml): 0.266 ± 0.016
IR (%) (HCT116; 1 μg/ml): 62.9%
OD(A570 nm) (HCT116; 1 μg/ml): 0.201 ± 0.060
IR (%) (HCT116; 4 μg/ml): 75.5%
OD(A570 nm) (HCT116; 4 μg/ml): 0.133 ± 0.016
IC50 (95% confidence level), interval (HCT116; 95% confidence limits of IC50): 0.211-0.257
IC50 (95% confidence level) (HCT116; [1]): 0.234
IR (%) (A459; A459, 0.0625 μg/ml): 23.9%
OD(A570 nm) (A459; A459, 0.0625 μg/ml): 0.485 ± 0.046
IR (%) (A459; A459, 0.25 μg/ml): 18.8%
OD(A570 nm) (A459; A459, 0.25 μg/ml): 0.517 ± 0.073
IR (%) (A459; A459, 1 μg/ml): 46.4%
OD(A570 nm) (A459; A459, 1 μg/ml): 0.341 ± 0.060
IR (%) (A459; A459, 4 μg/ml): 71.0%
IC50 (95% confidence level), interval (A459; A459): 1.113-1.213
IC50 (95% confidence level) (A459; A459): 1.162
IR (%) (A459; [2]): 23.9%
OD(A570 nm) (A459; [2]): 0.485 ± 0.046
IR (%) (A459; A459 Experiment #2, 0.25 μg/ml): 18.8%
OD(A570 nm) (A459; A459 Experiment #2, 0.25 μg/ml): 0.517 ± 0.073
IR (%) (A459; A459 Experiment #2, 1 μg/ml): 46.4%
OD(A570 nm) (A459; A459 Experiment #2, 1 μg/ml): 0.341 ± 0.060
IR (%) (A459; A459 Experiment #2, 4 μg/ml): 71.0%
IC50 (95% confidence level), interval (A459; A459 Experiment #2): 1.114-1.213
IC50 (95% confidence level) (A459; A459 Experiment #2): 1.162
IR (%) (SMMC-7721; SMMC-7721, 0.0625 μg/ml): −29.4%
OD(A570 nm) (SMMC-7721; SMMC-7721, 0.0625 μg/ml): 0.570 ± 0.166
IR (%) (SMMC-7721; SMMC-7721, 0.25 μg/ml): 46.2%
OD(A570 nm) (SMMC-7721; SMMC-7721, 0.25 μg/ml): 0.237 ± 0.020
IR (%) (SMMC-7721; SMMC-7721, 1 μg/ml): 71.0%
OD(A570 nm) (SMMC-7721; SMMC-7721, 1 μg/ml): 0.128 ± 0.011
IR (%) (SMMC-7721; SMMC-7721, 4 μg/ml): 61.6%
OD(A570 nm) (SMMC-7721; SMMC-7721, 4 μg/ml): 0.169 ± 0.022
IR (%) (SMMC-7721; [3]): 24.5%
OD(A570 nm) (SMMC-7721; [3]): 0.348 ± 0.045
IR (%) (SMMC-7721; [4]): 43.1%
OD(A570 nm) (SMMC-7721; [4]): 0.262 ± 0.020
IR (%) (SMMC-7721; [5]): 47.0%
OD(A570 nm) (SMMC-7721; [5]): 0.244 ± 0.155
IC50 (95% confidence level), interval (SMMC-7721; SMMC-7721 Experiment #2, 95% confidence limits of IC50): 3.757-4.640
IC50 (95% confidence level) (SMMC-7721; SMMC-7721 Experiment #2, Bliss method, unit not printed (concentrations in μg/ml)): 4.155
IR (%) (SKOV3; [6]): 1.6%
OD(A570 nm) (SKOV3; [6]): 0.689 ± 0.065
IR (%) (SKOV3; [7]): 8.3%
OD(A570 nm) (SKOV3; [7]): 0.643 ± 0.141
IR (%) (SKOV3; SKOV3 (first table), 1 μg/ml): 62.0%
OD(A570 nm) (SKOV3; SKOV3 (first table), 1 μg/ml): 0.267 ± 0.044
IR (%) (SKOV3; SKOV3 (first table), 4 μg/ml): 88.2%
OD(A570 nm) (SKOV3; SKOV3 (first table), 4 μg/ml): 0.083 ± 0.002
IC50 (95% confidence level) (SKOV3; SKOV3 (first table)): 0.89
IR (%) (SKOV3; [8]): 1.6%
OD(A570 nm) (SKOV3; [8]): 0.689 ± 0.065
IR (%) (SKOV3; [9]): 8.3%
OD(A570 nm) (SKOV3; [9]): 0.643 ± 0.141
IR (%) (SKOV3; SKOV3 (second table), 1 μg/ml): 62.0%
OD(A570 nm) (SKOV3; SKOV3 (second table), 1 μg/ml): 0.267 ± 0.044
IR (%) (SKOV3; SKOV3 (second table), 4 μg/ml): 88.2%
OD(A570 nm) (SKOV3; SKOV3 (second table), 4 μg/ml): 0.083 ± 0.002
IC50 (95% confidence level) (SKOV3; SKOV3 (second table)): 0.89
IR (%) (U251; [10]): 16.8%
OD(A570 nm) (U251; [10]): 0.729 ± 0.090
IR (%) (U251; U251 (first table), 0.25 μg/ml): 21.5%
OD(A570 nm) (U251; U251 (first table), 0.25 μg/ml): 0.688 ± 0.035
IR (%) (U251; U251 (first table), 1 μg/ml): 58.4%
OD(A570 nm) (U251; U251 (first table), 1 μg/ml): 0.365 ± 0.058
IR (%) (U251; U251 (first table), 4 μg/ml): 80.2%
OD(A570 nm) (U251; U251 (first table), 4 μg/ml): 0.174 ± 0.009
IC50 (95% confidence level) (U251; U251 (first table)): 1.13
IR (%) (U251; [11]): 16.8%
OD(A570 nm) (U251; [11]): 0.729 ± 0.090
IR (%) (U251; [12]): 21.5%
OD(A570 nm) (U251; [12]): 0.688 ± 0.035
IR (%) (U251; U251 (second table), 1 μg/ml): 58.4%
OD(A570 nm) (U251; U251 (second table), 1 μg/ml): 0.365 ± 0.058
IR (%) (U251; U251 (second table), 4 μg/ml): 80.2%
OD(A570 nm) (U251; U251 (second table), 4 μg/ml): 0.174 ± 0.009
IC50 (95% confidence level) (U251; U251 (second table)): 1.13
